Measured values published in patent publication EP0382411B1, “Delivery of cytotoxic agents” (ELI LILLY AND COMPANY, priority 1989, dated 1990).
In brackets after ≈: the same amount, converted by molar mass. Several values for one entry are separate records, joined by “and”; a condition that tells them apart may be missing. Identical values can stand only once.

Assays:
male Fischer 344 rats = assay: Rat hematology protocol (white blood cell determination); format: in vivo; conditions: for WBC's, Day 0, Mean: group mean of 5 rats; for WBC's, Day 0, Mean / WBC's, Day 0: pre-bleed before i.v. injection of 1 mg/kg; for WBC's, Day 3, Mean / WBC's, Day 7, Mean: group mean; for WBC's, Day 7, Mean / WBC's, Day 7: day 7 after 1 mg/kg i.v.; for WBC's, Day 3 / WBC's, Day 7 / WBC's, Day 0: individual rat; for WBC's, Day 0: 1 mg/kg
Procedure: The purpose of the following procedure was to compare the toxicity of the Substrate-Cytotoxic Agent to the toxicity of Cytotoxic Agent alone. • 1. Day 0: 25 male Fischer 344 rats (∼100g) are pre-bled (eyebleed) and injected i.v. as follows: • Group A: 5 rats + vehicle control: 0.5 ml 10 mM HEPES, 150 NaCl, pH 7.1 buffer containing 10% ethanol. • Group B: 5 rats + 1 mg/kg 4 desacetylvinblastine-3-carboxhydrazide (DAVLBHYD). Dissolve 1 mg DAVLBHYD in 0.5 ml absolute ethanol and add 4.5 ml HEPES-NaCl buffer. Inject each rat with 0.5 ml. • Group C: 5 rats + 1 mg/kg ("LY262758") (7-β-2-(phenoxyacetamido)-3-(((desacetylvinblastine)aminocarboxy)methylene)-3-cephem-1-β-sulfoxide-4-carboxybiacid, trifluoroacetic acid salt) (vinca content), (58% vinca). Dissolve 2 mg as above and inject 0.5 ml. • Group D: 5 rats + 1mg/kg ("LY266494"), (7-β-(2-(thien-2-yl)acetamido-3-(((desacetylvinblastinehydrazido)carbonyloxy)methylene)-3-cephem-4-carboxylic acid, hydrochloride salt (55.8% vinca). Dissolve 2 mg and inject 0.5 ml. • Group E: 5 rats + 1 mg/kg ("LY266070") 7-β-(2-(thien-2-yl)acetamido-3-(((desacetylvinblastinehydrazido)carbonyloxy)methylene)-3-cephem-1-β-sulfoxide-4-carboxylic acid, trifluoroacetic acid salt. Dissovle 2 mg and inject 0.5 ml. All animals were indentifed by ear punch and were bled on days 3 and 7 post treatment for white blood cell (WBC) determination. The raw data are on the following page. […] The WBC values of the groups were indistinguishable at day 7 (and lower than the pre-bleed which may have been due to using a different instrument for the WBC determination).

[1] = test system: CEA - bearing LS174T tumor cells; assay: In vitro cytotoxicity determination (3H-leucine uptake); format: cell-based
Procedure: Target cells (antigen positive or antigen negative) are resuspended in 75% leucine deficient EBSS-MEM (GIBCO, Grand Island, NY) + 10% dialyzed fetal bovine serum (FBS) + gentamicin (GIBCO) at 200,000 cells/ml. Aliquots of this cell suspension, 0.2 ml, are seeded into 96 well plates and incubated overnight at 37°C, 5% CO₂. To the supernatants is added the antibody-enzyme conjugate to a final concentration of 25 µg/ml (unconjugated enzyme, unconjugated antibody, no treatment). The supernatants are removed after 1 hr incubation, and the cells rinsed once with media. The media is then replaced with the same media, but containing a Substrate-Cytotoxic Agent at concentrations between 0.001 and 10 µg/ml. The cells are incubated with the Substrate-Cytotoxic Agent compound for a period of time ranging from 3 to 48 h at 37°C, 5% CO₂. Media containing 4 µCi of ³H-leucine are added per well. The cells are incubated 24 hr with the labeled leucine, then harvested. Uptake of labeled leucine is determined by liquid scintillation counting. (All Samples are run in triplicate.) Results are reported as the Substrate-Cytotoxic Agent concentration at which leucine incorporation is reduced to 50% of the control value (ID₅₀).
The rest of the experiment was carried using the above standard procedure.

[2] = target: P-99 E. cloacae beta-lactamase Enzyme (Enterobacter cloacae, UniProt P05364); assay: Release of substituents from the 3'-methylene group of cephalosporins on treatment with beta-lactamase; format: biochemical
Sequence of P-99 E. cloacae beta-lactamase Enzyme (P05364 21-381): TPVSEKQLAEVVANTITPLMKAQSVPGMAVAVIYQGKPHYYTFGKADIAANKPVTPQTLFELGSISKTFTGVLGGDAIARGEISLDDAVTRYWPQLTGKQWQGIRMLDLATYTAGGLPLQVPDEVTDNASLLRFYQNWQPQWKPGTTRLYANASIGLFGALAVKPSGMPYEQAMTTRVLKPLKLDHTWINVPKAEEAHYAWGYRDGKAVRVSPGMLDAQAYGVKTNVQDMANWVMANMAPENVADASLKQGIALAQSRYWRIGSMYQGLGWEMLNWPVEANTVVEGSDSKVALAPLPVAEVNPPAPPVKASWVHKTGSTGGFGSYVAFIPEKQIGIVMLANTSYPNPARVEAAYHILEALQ
Procedure: (If the detection method is not instantaneous, the enzyme can be stopped at the desired time by addition of an inhibitor such as cloxacillin (Sigma, St. Louis, Mo.) at its effective concentration: 5 µM for cloxacillin.)
For instance, a model system for the present method employs the expulsion of aminoethanethiol from 7-β-(2-(thien-2-yl)acetamido)-3-((2-aminoethyl-1-sulfide)methylene)-3-cephem-4-carboxylic acid. A typical enzyme assay was performed (following the 264 nm absorbance), but in 50 mM Tris, 100 mM NaCl buffer, pH 8.0. […] Using molar extinction coefficients of 8,540 for the 264 nm absorbance, and 13,600 for the 412 nm absorbance, the rates of the two reactions can be compared (reaction of thiol with DTNB is instantaneous under these conditions).
A stock solution of P-99 E. cloacae beta-lactamase Enzyme was prepared. To the stock solution of the cephalosporin Substrate (90 µl) was added stock beta-lactamase solution (10 µl). The reaction was monitored by HPLC (on a Waters Associates C₁₈ µ Bondapak column) eluted with 25% acetonitrile/ 1% acetic acid in water (monitered at 254 nm absorbance). The retention time for 5-fluorouracil was 1.9 minutes and was 5.3 minutes for the cephalosporin - (5-fluorouracil) compound. Approximately 30 seconds after mixing, a 5 µl aliqout of the reaction mixture was injected into the HPLC. […] Thirty-six minutes after mixing the stock solutions the amount of compound eluting at […] was further diminished, and the amount of compound eluting at 1.9 minutes was correspondingly larger by intergration of the peak areas.

white blood cell (WBC) = assay: Rat hematology protocol (white blood cell determination); format: in vivo, male Fischer 344 rats; conditions: day 3 post treatment, 1 mg/kg i.v., compared to all other groups
Procedure: The purpose of the following procedure was to compare the toxicity of the Substrate-Cytotoxic Agent to the toxicity of Cytotoxic Agent alone. • 1. Day 0: 25 male Fischer 344 rats (∼100g) are pre-bled (eyebleed) and injected i.v. as follows: • Group A: 5 rats + vehicle control: 0.5 ml 10 mM HEPES, 150 NaCl, pH 7.1 buffer containing 10% ethanol. • Group B: 5 rats + 1 mg/kg 4 desacetylvinblastine-3-carboxhydrazide (DAVLBHYD). Dissolve 1 mg DAVLBHYD in 0.5 ml absolute ethanol and add 4.5 ml HEPES-NaCl buffer. Inject each rat with 0.5 ml. • Group C: 5 rats + 1 mg/kg ("LY262758") (7-β-2-(phenoxyacetamido)-3-(((desacetylvinblastine)aminocarboxy)methylene)-3-cephem-1-β-sulfoxide-4-carboxybiacid, trifluoroacetic acid salt) (vinca content), (58% vinca). Dissolve 2 mg as above and inject 0.5 ml. • Group D: 5 rats + 1mg/kg ("LY266494"), (7-β-(2-(thien-2-yl)acetamido-3-(((desacetylvinblastinehydrazido)carbonyloxy)methylene)-3-cephem-4-carboxylic acid, hydrochloride salt (55.8% vinca). Dissolve 2 mg and inject 0.5 ml. • Group E: 5 rats + 1 mg/kg ("LY266070") 7-β-(2-(thien-2-yl)acetamido-3-(((desacetylvinblastinehydrazido)carbonyloxy)methylene)-3-cephem-1-β-sulfoxide-4-carboxylic acid, trifluoroacetic acid salt. Dissovle 2 mg and inject 0.5 ml. All animals were indentifed by ear punch and were bled on days 3 and 7 post treatment for white blood cell (WBC) determination. […]

[3] = day 3 after 1 mg/kg i.v., trifluoroacetic acid salt
[4] = substance alone, no conjugate, treatment time 6 Hours
[5] = substance alone, no conjugate, treatment time 48 Hours

Compound: 7-β-2-(phenoxyacetamido)-3-(((desacetylvinblastine)aminocarboxy)methylene)-3-cephem-1-β-sulfoxide-4-carboxybiacid, trifluoroacetic acid salt [LY262758]
- WBC's, Day 0, Mean (male Fischer 344 rats): 13.4 x 1000
- WBC's, Day 3, Mean (male Fischer 344 rats; day 3 after 1 mg/kg i.v.): 14.8 x 1000
- WBC's, Day 7, Mean (male Fischer 344 rats): 11.2 x 1000
- WBC's, Day 3 (male Fischer 344 rats; [3]): 13.3 x 1000 and 14.6 x 1000 and 15.0 x 1000 and 16.3 x 1000 and 14.7 x 1000
- WBC's, Day 7 (male Fischer 344 rats; trifluoroacetic acid salt): 14.0 x 1000 and 13.0 x 1000 and 12.5 x 1000 and 9.0 x 1000 and 7.7 x 1000
- WBC's, Day 0 (male Fischer 344 rats; trifluoroacetic acid salt): 13.3 x 1000 and 14.3 x 1000 and 9.4 x 1000 and 10.2 x 1000 and 19.7 x 1000

Compound: 7-β-(2-(thien-2-yl)acetamido)-3-((((1-(desacetylvinblastine)amino)-2-ethylsulfide)methylene)-3-cephem-4-carboxylic acid [COMPOUND] [listing 1 of 2 here]
- ID50 ([1]; cells first treated with B-L-CEM231 conjugate 25 µg/ml for 1 hour, COMPOUND treatment time 6 Hours): 0.265 µg/mL
- ID50 ([1]; cells first treated with B-L-CEM231 conjugate 25 µg/ml for 1 hour, COMPOUND treatment time 48 Hours): <0.001 µg/mL
- ID50 [1, 4]: .154 µg/mL
- ID50 [1, 5]: <0.001 µg/mL

Compound: CC[C@]1(O)C[C@@H]2CN(CCc3c([nH]c4ccccc34)[C@@](C(=O)OC)(c3cc4c(cc3OC)N(C)[C@H]3[C@@](O)(C(=O)NN)[C@H](O)[C@]5(CC)C=CCN6CC[C@]43[C@@H]65)C2)C1 [DAVLB-Hyd, 4 desacetylvinblastine-3-carboxhydrazide, reference compound]
- WBC suppression (male Fischer 344 rats; day 3 after 1 mg/kg i.v., compared to all other groups): significant WBC suppression
- WBC's, Day 0, Mean (male Fischer 344 rats): 13.8 x 1000
- WBC's, Day 3, Mean (male Fischer 344 rats; day 3 after 1 mg/kg i.v.): 7.4 x 1000
- WBC's, Day 7, Mean (male Fischer 344 rats): 9.2 x 1000
- WBC's, Day 3 (male Fischer 344 rats; day 3 after 1 mg/kg i.v.): 4.4 x 1000 and 9.0 x 1000 and 5.4 x 1000 and 10.6 x 1000
- WBC's, Day 7 (male Fischer 344 rats): 5.0 x 1000 and 2.8 x 1000 and 19.8 x 1000
- WBC's, Day 0 (male Fischer 344 rats): 17.4 x 1000 and 10.9 x 1000 and 10.2 x 1000 and 12.7 x 1000 and 17.6 x 1000

Compound: NCCSCC1=C(C(=O)O)N2C(=O)[C@@H](NC(=O)Cc3cccs3)[C@H]2SC1 [7-β-(2-(thien-2-yl)acetamido)-3-((2-aminoethyl-1-sulfide)methylene)-3-cephem-4-carboxylic acid, reference compound]
- release of thiol ([2]; 50 mM Tris, 100 mM NaCl, pH 8.0, DTNB, absorbance at 412 nm vs 264 nm): thiol is released as a result of beta-lactamase catalyzed cleavage of the cephalosporin, but that the release rate is slower than the catalytic rate

Compound: CCC1(O)CC2CN(CCc3c([nH]c4ccccc34)C(C(=O)OC)(c3cc4c(cc3OC)N(C)C3C(O)(C(=O)NNC(=O)OCC5=C(C(=O)O)N6C(=O)C(NC(=O)Cc7cccs7)C6SC5)C(O)C5(CC)C=CCN6CCC43C65)C2)C1.Cl (stereo not shown) [LY266494]
- WBC's, Day 0, Mean (male Fischer 344 rats): 15.6 x 1000
- WBC's, Day 3, Mean (male Fischer 344 rats; day 3 after 1 mg/kg i.v.): 15.0 x 1000
- WBC's, Day 7, Mean (male Fischer 344 rats): 12.0 x 1000
- WBC's, Day 3 (male Fischer 344 rats; day 3 after 1 mg/kg i.v., hydrochloride salt): 19.2 x 1000 and 16.2 x 1000 and 14.3 x 1000 and 13.3 x 1000 and 12.1 x 1000
- WBC's, Day 7 (male Fischer 344 rats; hydrochloride salt): 8.3 x 1000 and 6.8 x 1000 and 11.4 x 1000 and 13.2 x 1000 and 20.1 x 1000
- WBC's, Day 0 (male Fischer 344 rats; hydrochloride salt): 15.6 x 1000 and 16.5 x 1000 and 14.3 x 1000 and 16.0 x 1000

Compound: CC[C@]1(O)C[C@@H]2CN(CCc3c([nH]c4ccccc34)[C@@](C(=O)OC)(c3cc4c(cc3OC)N(C)[C@H]3[C@@](O)(C(=O)NN)[C@H](O)[C@]5(CC)C=CCN6CC[C@]43[C@@H]65)C2)C1 [DAVLBHYD, 4 desacetylvinblastine-3-carboxhydrazide]
- white blood cell (WBC) determination (white blood cell (WBC)): significant WBC suppression

Compound: O=C(Cc1cccs1)N[C@@H]1C(=O)N2C(C(=O)O)=C(Cn3cc(F)c(=O)[nH]c3=O)CS[C@H]12 [ceph-5-FU, 7-β-(2-(thien-2-yl)acetamido)-3-((N-1(5-fluorouracil)-yl)methylene)-3-cephem-4-carboxylic acid]
- expulsion of 5-fluorouracil (HPLC trace) ([2]; approximately 30 seconds after mixing with beta-lactamase): the cephalosporin had been consumed
- expulsion of 5-fluorouracil (HPLC trace) ([2]; twenty-one minutes after mixing, 5-fluorouracil elutes at 1.9 minutes): a large amount of compound eluting at 1.9 minutes was observed

Compound: CCC1(O)CC2CN(CCc3c([nH]c4ccccc34)C(C(=O)OC)(c3cc4c(cc3OC)N(C)C3C(O)(C(=O)NCCS)C(O)C5(CC)C=CCN6CCC43C65)C2)C1 (stereo not shown) [Desacetylvinblastine aminoethanethiol, reference compound]
- ID50 [1, 4]: 0.26 µg/mL (≈ 0.319 µM)
- ID50 [1, 5]: <0.001 µg/mL

Compound: CC[C@]1(O)C[C@H]2CN(CCc3c([nH]c4ccccc34)[C@@](C(=O)OC)(c3cc4c(cc3OC)N(C)[C@H]3[C@@](O)(C(=O)NNC(=O)OCC5=C(C(=O)O)N6C(=O)[C@@H](NC(=O)Cc7cccs7)[C@H]6[S+]([O-])C5)[C@H](O)[C@]5(CC)C=CCN6CC[C@]43[C@@H]65)C2)C1.O=C(O)C(F)(F)F (stereo partly shown) [LY266070]
- WBC's, Day 0, Mean (male Fischer 344 rats): 13.0 x 1000
- WBC's, Day 3, Mean (male Fischer 344 rats; day 3 after 1 mg/kg i.v.): 13.9 x 1000
- WBC's, Day 7, Mean (male Fischer 344 rats): 9.6 x 1000
- WBC's, Day 3 (male Fischer 344 rats; [3]): 15.9 x 1000 and 12.8 x 1000 and 15.1 x 1000 and 14.5 x 1000 and 11.3 x 1000
- WBC's, Day 7 (male Fischer 344 rats; trifluoroacetic acid salt): 7.0 x 1000 and 14.5 x 1000 and 9.6 x 1000 (2×) and 7.1 x 1000
- WBC's, Day 0 (male Fischer 344 rats; trifluoroacetic acid salt): 14.1 x 1000 and 15.0 x 1000 and 9.9 x 1000 (2×) and 16.2 x 1000

Compound: 7-β-(2-(thien-2-yl)acetamido)-3-((((1-(desacetylvinblastine)amino)-2-ethylsulfide)methylene)-3-cephem-4-carboxylic acid [COMPOUND] [listing 2 of 2 here]
- toxicity to the tumor cells ([1]; LS174T cells first treated with B-L-CEM231 conjugate at 25 µg/ml for 1 hour): dramatically increased
- toxicity to the tumor cells ([1]; LS174T cells untreated with conjugate, compared with the Cytotoxic Agent from which it is derived): much less toxic to the tumor cells than the Cytotoxic Agent from which it is derived
